Data: patent US20230310330A1, “PEPTIDIC OLIGOMERS AND METHODS OF USING THE SAME” (BIOVENTURES, LLC, priority 2022, published 2023)
Read-outs that look alike come from different tables or passages of the source.

Tests used:
[1] = tested on: mouse 4T1 breast cancer cells
Experimental: Cells were incubated with varying concentrations for 48 hours, followed by CCK8 reagent. The absorbance at 450 nm was recorded.
Biocompatibility of the peptidic oligomers was characterized in a toxicity assay of the empty beta and gamma chains performed with mouse 4T1 breast cancer cells (FIG. 4). […] Cells were incubated with varying concentrations for 48 hours, followed by CCK8 reagent. The absorbance at 450 nm was recorded.

vacuolar ATPase = assay: Bafilomycin A1 block of FITC-labeled CPP translocation, flow cytometry; format: cell-based
Text: FIG. 15: Bafilomycin Al blocks CPP translocation. (A) FITC-labeled B6 and G6 are easily detected by flow cytometry.
Vacuolar ATPase aids in the transport to the interior of acidic organelles and BafA1 efficiently neutralizes the luminal pH, inhibits acidic hydrolases, and impairs the fusion among acidic organelles.

4T1 breast cancer cells = assay: In vitro cell viability assay, CellTiter-Glo, 72 hours; format: cell-based, mouse; settings: 4T1 cells
Experimental: The assay was run for 72 hours with the CellTiter-Glo assay to determine cell viability.

## CC(C)(C)OC(=O)N[C@@H](CNC(=O)[C@H](CNC(=O)[C@H](CNC(=O)[C@H](CNC(=O)[C@H](CNC(=O)[C@H](CN)NC(=O)OC(C)(C)C)NC(=O)OC(C)(C)C)NC(=O)OC(C)(C)C)NC(=O)OC(C)(C)C)NC(=O)OC(C)(C)C)C(=O)O [B6]
[1]
  cellular toxicity (number of viable cells): do not display cellular toxicity

## CO/C1=C\C(C)=C\[C@@H](C)[C@@H](O)[C@@H](C)C/C(C)=C/C=C/[C@H](OC)[C@@H]([C@@H](C)[C@@H](O)[C@H](C)[C@@]2(O)C[C@@H](O)[C@H](C)[C@@H](C(C)C)O2)OC1=O [Bafilomycin A1]
Vacuolar ATPase
  effect on FITC-labeled CPP binding and translocation (FITC signal): blocked FITC-labeled CPP
Vacuolar ATPase; listed as BafA1
  effect on FITC-labeled CPP binding and translocation (FITC signal): blocks B6-FITC binding and translocation

## CC(C)(C)OC(=O)N[C@@H](CCNC(=O)[C@H](CCNC(=O)[C@H](CCNC(=O)[C@H](CCNC(=O)[C@H](CCNC(=O)[C@H](CCN)NC(=O)OC(C)(C)C)NC(=O)OC(C)(C)C)NC(=O)OC(C)(C)C)NC(=O)OC(C)(C)C)NC(=O)OC(C)(C)C)C(=O)O [G6]
[1]
  cellular toxicity (number of viable cells): do not display cellular toxicity

## C[S+]([O-])CCCCN=C=S (centres unmarked) [sulforaphane, D, L sulforaphane]
4T1 breast cancer cells
  concentration showing significant activity: 10 mM
